Test systems include HL-60(TB) leukemia; NCI-H522 lung; HCT-15 colon; NCI-H23 lung; MOLT-4 leukemia; EKVX NSCLC; COLO 205 colon; SNB-75 CNS; BT-549 breast; PC-3 prostate; HT29 colon.
Assay in all cases: NCI-60 cell line screen, 48 h

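How tested: cells in 96-well plates exposed to compound for 48 hours at five concentrations. Abbreviation: GI50, concentration required for 50% inhibition of growth. TGI: total growth inhibition.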

As to `COc1cc(/C=C2\N=C(c3ccccc3)N(/N=C3\C(=O)Nc4ccccc43)C2=O)cc(OC)c1OC`, the TGI in the assay with HL-60(TB) leukemia, in the assay with NCI-H522 lung, in the assay with HCT-15 colon, in the assay with NCI-H23 lung, with MOLT-4 leukemia and in the assay on EKVX NSCLC was > 100 µM throughout. The TGI with COLO 205 colon, in the assay with SNB-75 CNS, with BT-549 breast, in the assay on PC-3 prostate and in the assay with HT29 colon was > 100 µM in each case.

Consider `COc1c(OC)c(O)c2c(=O)c(OC)c(-c3ccc4c(c3)OCO4)oc2c1O`, for which the TGI with HL-60(TB) leukemia, in the assay on NCI-H522 lung, in the assay on HCT-15 colon, with NCI-H23 lung, with MOLT-4 leukemia and in the assay with EKVX NSCLC was > 100 µM each time. Also, the TGI in the assay with COLO 205 colon, with SNB-75 CNS, with BT-549 breast, in the assay on PC-3 prostate and in the assay on HT29 colon was > 100 µM throughout.

For the compound `Cc1nccn1S(=O)(=O)c1ccc(Br)cc1Br`, the TGI with HL-60(TB) leukemia was 51.5 µM; in the assay on NCI-H522 lung, 86.9 µM; in the assay with HCT-15 colon, > 100 µM; with NCI-H23 lung, > 100 µM; in the assay with MOLT-4 leukemia it was 96.1 µM; in the assay with EKVX NSCLC, 96.8 µM. The TGI in the assay on COLO 205 colon was 33.4 µM; in the assay with SNB-75 CNS it was 57.9 µM; in the assay with BT-549 breast it was > 100 µM; in the assay on PC-3 prostate it was > 100 µM; with HT29 colon, > 100 µM.

Turning to `Cc1cccc2nc3cccc(C(=O)NCCC[N+](C)(CCCNC(=O)c4cccc5nc6cccc(C)c6nc45)Cc4c([N+](=O)[O-])ncn4C)c3nc12`, the GI50 was 48.6 µM with HL-60(TB) leukemia; 16.2 µM in the assay with NCI-H522 lung; 13.6 µM with HCT-15 colon; 370 µM in the assay on NCI-H23 lung; 8.38 µM in the assay on MOLT-4 leukemia; 443 µM in the assay with EKVX NSCLC. Further, the GI50 with COLO 205 colon was 184 µM; in the assay on PC-3 prostate it was 6.47 µM; in the assay on HT29 colon, 1960 nM. The TGI with NCI-H522 lung, in the assay on HCT-15 colon, with NCI-H23 lung, in the assay with EKVX NSCLC, in the assay with COLO 205 colon and with SNB-75 CNS was > 1100 µM throughout. Further, the TGI in the assay on BT-549 breast was > 1100 µM; in the assay on PC-3 prostate, > 1100 µM; in the assay with HT29 colon it was 96.5 µM.

Turning to `CC(C)(C)OC(=O)NC(Cc1ccc(O)cn1)C(N)=O` (centres undefined), the TGI with HL-60(TB) leukemia, in the assay with NCI-H522 lung, in the assay with HCT-15 colon, in the assay on NCI-H23 lung, with MOLT-4 leukemia and in the assay on EKVX NSCLC was > 100 µM throughout. For the same compound, the TGI in the assay on COLO 205 colon, in the assay on SNB-75 CNS, in the assay on BT-549 breast, with PC-3 prostate and in the assay with HT29 colon was > 100 µM in each case.

For the compound `COCN1CCN=c2c1c1c3c(c4ccccc4n23)CCC1`, the TGI with HL-60(TB) leukemia, with NCI-H522 lung, in the assay on HCT-15 colon, in the assay with NCI-H23 lung, in the assay on MOLT-4 leukemia and in the assay with EKVX NSCLC was > 100 µM in each case. Moreover, the TGI in the assay with COLO 205 colon, in the assay with SNB-75 CNS, in the assay with BT-549 breast, in the assay on PC-3 prostate and with HT29 colon was > 100 µM in each case.

Regarding `C=C1C(=O)O[C@H]2C/C(C)=C/CC/C(C)=C/CC[C@@](C)(O)[C@@H](I)C[C@@H]12`, the TGI with HL-60(TB) leukemia is 14.6 µM; in the assay with NCI-H522 lung, 14.4 µM; in the assay on HCT-15 colon it was 20.1 µM; in the assay with NCI-H23 lung it was 2.43 µM; in the assay with MOLT-4 leukemia it was > 26.2 µM; with EKVX NSCLC it was 20.8 µM. Also, the TGI turned out to be 24.9 µM in the assay with COLO 205 colon; 25.1 µM in the assay with SNB-75 CNS; 6.62 µM in the assay on BT-549 breast; 21.1 µM in the assay with PC-3 prostate; 26.8 µM in the assay with HT29 colon.

In the case of `O=C1OC2(C(F)(F)F)Oc3ccccc3CN2C12CCCCC2` (centres undefined), the TGI with HL-60(TB) leukemia is 40.5 µM; in the assay with NCI-H522 lung, 83.3 µM; in the assay on HCT-15 colon it was 84.1 µM; in the assay with NCI-H23 lung, 95.2 µM; in the assay on MOLT-4 leukemia, 54.3 µM; in the assay on EKVX NSCLC, > 100 µM. In addition, the TGI in the assay on COLO 205 colon is 34.7 µM; in the assay with SNB-75 CNS it was 59.1 µM; in the assay on BT-549 breast it was > 100 µM; in the assay with PC-3 prostate, 88 µM; in the assay with HT29 colon, > 100 µM.

For the compound `O=C(Nc1nnc(-c2ccccc2)o1)C(SC(=S)N1CCOCC1)c1ccccc1` (centres undefined), the TGI in the assay on HL-60(TB) leukemia was 36.3 µM; in the assay on NCI-H522 lung, 93.5 µM; with HCT-15 colon it was > 100 µM; in the assay with NCI-H23 lung, 69 µM; with MOLT-4 leukemia, 83.1 µM; in the assay with EKVX NSCLC it was 55.5 µM. For the same compound, the TGI in the assay on COLO 205 colon, in the assay with SNB-75 CNS, in the assay on BT-549 breast, in the assay on PC-3 prostate and in the assay on HT29 colon was > 100 µM in each case.

With `C=CCN(c1cc(OCc2ccccc2)c(NC(C)=O)cc1[N+](=O)[O-])S(C)(=O)=O`, the TGI is > 100 µM in the assay with HL-60(TB) leukemia; > 100 µM in the assay with NCI-H522 lung; > 100 µM in the assay on HCT-15 colon; 32.3 µM in the assay on NCI-H23 lung; > 100 µM in the assay on MOLT-4 leukemia; 33.8 µM with EKVX NSCLC. Further, the TGI was > 100 µM in the assay on COLO 205 colon; 43.6 µM in the assay with SNB-75 CNS; 93.3 µM in the assay on BT-549 breast; > 100 µM in the assay on PC-3 prostate; > 100 µM in the assay on HT29 colon.

As for `COc1ccc2c(c1)nc1n2C(N)=Nc2ccccc2S1`, the TGI with HL-60(TB) leukemia is 6.95 µM; with NCI-H522 lung, > 100 µM; in the assay with HCT-15 colon it was > 100 µM; in the assay with NCI-H23 lung, > 100 µM; in the assay on MOLT-4 leukemia, > 56.6 µM; in the assay with EKVX NSCLC, > 100 µM. In addition, the TGI in the assay with COLO 205 colon, in the assay with SNB-75 CNS, with BT-549 breast, in the assay with PC-3 prostate and in the assay on HT29 colon was > 100 µM in each case.

For `C=CC(C)(C)N[C@@H](C(=O)N1CCC[C@H]1c1nc(-c2nc(C(=O)OCC=C(C)C)c(C)o2)c(C)o1)C(C)C`, the TGI in the assay with HL-60(TB) leukemia was 93.9 µM; in the assay on NCI-H522 lung, 35.6 µM; in the assay with HCT-15 colon, 51.5 µM; with NCI-H23 lung, 48.1 µM; with MOLT-4 leukemia, 36.9 µM; in the assay on EKVX NSCLC it was > 100 µM. The TGI was 52.1 µM in the assay on COLO 205 colon; > 100 µM with SNB-75 CNS; 46.2 µM in the assay on BT-549 breast; > 100 µM with PC-3 prostate; 46.1 µM in the assay with HT29 colon.

The values are drawn from PubChem BioAssay (NCI).
